We go through 17 compounds from patent publication US6596878B2, “Methods and compositions for inhibiting cell proliferative disorders” (Yissum Research & Development Company of the Hebrew …, priority 1994, dated 2003).

Structures are written as SMILES. Read-outs that look alike come from different tables or passages of the source.

The target of one test is T1, human EGF receptor (Homo sapiens, UniProt P00533).
T1 construct: expressed in transfected cells; host or cells: NIH3T3 clone C7 (EGFR/C7; mouse fibroblasts)
T1 sequence (P00533 25-1210): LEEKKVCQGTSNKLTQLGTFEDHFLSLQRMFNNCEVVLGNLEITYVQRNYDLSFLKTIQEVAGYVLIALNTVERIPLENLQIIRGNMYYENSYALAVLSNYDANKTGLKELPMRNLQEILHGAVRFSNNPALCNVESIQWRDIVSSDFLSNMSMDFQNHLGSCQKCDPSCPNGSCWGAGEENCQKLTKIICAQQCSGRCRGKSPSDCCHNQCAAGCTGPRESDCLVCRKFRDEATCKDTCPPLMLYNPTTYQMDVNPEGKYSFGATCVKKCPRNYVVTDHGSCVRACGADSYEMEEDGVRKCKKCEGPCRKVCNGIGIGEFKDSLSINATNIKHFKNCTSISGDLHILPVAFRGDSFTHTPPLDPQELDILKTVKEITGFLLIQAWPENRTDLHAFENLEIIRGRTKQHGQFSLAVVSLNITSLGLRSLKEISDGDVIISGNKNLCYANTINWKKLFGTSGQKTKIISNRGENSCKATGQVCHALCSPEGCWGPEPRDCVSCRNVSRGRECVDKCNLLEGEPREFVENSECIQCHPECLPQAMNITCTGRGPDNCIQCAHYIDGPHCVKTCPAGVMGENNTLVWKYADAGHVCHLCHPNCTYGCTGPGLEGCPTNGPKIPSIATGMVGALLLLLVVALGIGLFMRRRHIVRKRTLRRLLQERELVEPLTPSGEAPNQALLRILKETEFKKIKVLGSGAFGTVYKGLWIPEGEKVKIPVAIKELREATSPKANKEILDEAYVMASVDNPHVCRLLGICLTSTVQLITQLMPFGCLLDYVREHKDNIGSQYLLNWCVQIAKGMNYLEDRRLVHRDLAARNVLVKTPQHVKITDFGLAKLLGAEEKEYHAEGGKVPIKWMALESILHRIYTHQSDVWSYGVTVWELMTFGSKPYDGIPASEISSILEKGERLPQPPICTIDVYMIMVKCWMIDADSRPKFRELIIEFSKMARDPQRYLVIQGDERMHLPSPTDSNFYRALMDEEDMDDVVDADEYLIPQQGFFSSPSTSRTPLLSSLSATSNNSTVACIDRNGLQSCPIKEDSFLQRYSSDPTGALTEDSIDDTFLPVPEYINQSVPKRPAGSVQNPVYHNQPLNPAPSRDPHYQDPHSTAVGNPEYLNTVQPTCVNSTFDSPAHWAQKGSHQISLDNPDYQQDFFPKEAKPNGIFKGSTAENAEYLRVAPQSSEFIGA
Briefly: EGF-receptor whole cell kinase assay (EGFR-3T3). The format is cell-based. As for the experimental part: (§1) The following target cells were used for cellular kinaseassays: NIH3T3 clone C7 (Honegger et al., supra) engineered to over-express human EGF receptor; NIH3T3 cells engineered to over-express a chimeric receptor containing the EGFR extracellular domain and the HER2 intracellular kinase domain; the human mammary carcinoma line BT474 (ATCC HTB2) expressing HER2; and the human glioblastoma line U1242 that expresses PDGFR-β. Growth assays were carried out using human mammary epithelial SKBR3 (ATCC HTB30) cells, SKOV3 (ATCC HTB77) human ovarian cancer cell line, A431 cells, MCF7 human breast carcinoma cells, MCF7 cells overexpress the HER2 kinase (MCF7-HER2), NIH3T3 cells, and NIH3T3 cells overexpressing the HER2 kinase (3T3-HER2).
Unless otherwise stated the effect of various compounds on receptor tyrosine kinases were assayed as described in this section.
1. EGF-receptor Whole Cell Kinase Assay
EGFR kinase activity (EGFR-3T3 assay) in whole cells was measured as described below:
The following protocol was used:
A. Coat ELISA plates (Corning, 96 well, Cat. #25805-96) with 05-101 antibody at 0.5 μg per well in PBS, 150 μl final volume/well, and store overnight at 4° C. Coated plates are good for up to 10 days when stored at 4° C.
B. On day of use, remove coating buffer and replace with blocking buffer (5% Carnation Instant Non-Fat Dry Milk in PBS). Incubate the plate, shaking, at room temperature (about 23° C. to 25° C.) for 30 minutes. Just prior to use, remove blocking buffer and wash plate 4 times with TBST buffer.
A. EGFR/C7 cell line (Honegger, et al., Cell 51:199-209, 1987) can be use for this assay.
B. Choose dishes having 80-90% confluence for the experiment. Trypsinize cells and stop reaction by adding 10% CS DMEM medium. Suspend cells in DMEM medium (10% CS DMEM medium) and centrifuge once at 1000 rpm, and once at room temperature for 5 minutes.
C. Resuspend cells in seeding medium (DMEM, 0.5% bovine serum), and count the cells using trypan blue. Viability above 90% is acceptable. Seed cells in DMEM medium (0.5% bovine serum) at a density of 10,000 cells per well, 100 μl per well, in a 96 well microtiter plate. Incubate seeded cells in 5% CO2 at 37° C. for about 40 hours.
A. Check seeded cells for contamination using an inverted microscope. Dilute drug stock (10 mg/ml in DMSO) 1:10 in DMEM medium, then transfer 5 μl to a test well for a final drug dilution of 1:200 and a final DMSO concentration of […]. Control wells receive DMSO alone. Incubate in 5% CO2 at 37° C. for one hour.
B. Prepare EGF ligand: dilute stock EGF in DMEM so that upon transfer of 10 μl dilute EGF (1:12 dilution), 25 nM final concentration is attained.
C. Prepare fresh HNTG* sufficient for 100 μl per well; and place on ice.
D. After two hours incubation with drug, add prepared EGF ligand to cells, 10 μl per well, to yield a final concentration of 25 nM. Control wells receive DMEM alone. Incubate, shaking, at room temperature, for 5 minutes.
E. Remove drug, EGF, and DMEM. Wash cells twice with PBS. Transfer HNTG* to cells, 100 μl per well. Place on ice for 5 minutes. Meanwhile, remove blocking buffer from other ELISA plate and wash with TBST as described above.
F. With a pipette tip securely fitted to a micropipettor, scrape cells from plate and homogenize cell material by repeatedly aspirating and dispensing the HNTG* lysis buffer. Transfer lysate to a coated, blocked, and washed ELISA plate. Incubate shaking at room temperature for one hour.
G. Remove lysate and wash 4 times with TBST. Transfer freshly diluted anti-Ptyr antibody to ELISA plate at 100 μl per well. Incubate shaking at room temperature for 30 minutes in the presence of the anti-Ptyr antiserum (1:3000 dilution in TBST).
H. Remove the anti-Ptyr antibody and wash 4 times with TBST. Transfer the freshly diluted TAGO anti-rabbit IgG antibody to the ELISA plate at 100 μl per well.

The target in a further test is T2, HER2 (Homo sapiens, UniProt P04626).
T2 construct: the human mammary carcinoma line BT474 (ATCC HTB2) expressing HER2; endogenous in cells; host or cells: BT474 human mammary carcinoma cells
T2 sequence (P04626 23-1255): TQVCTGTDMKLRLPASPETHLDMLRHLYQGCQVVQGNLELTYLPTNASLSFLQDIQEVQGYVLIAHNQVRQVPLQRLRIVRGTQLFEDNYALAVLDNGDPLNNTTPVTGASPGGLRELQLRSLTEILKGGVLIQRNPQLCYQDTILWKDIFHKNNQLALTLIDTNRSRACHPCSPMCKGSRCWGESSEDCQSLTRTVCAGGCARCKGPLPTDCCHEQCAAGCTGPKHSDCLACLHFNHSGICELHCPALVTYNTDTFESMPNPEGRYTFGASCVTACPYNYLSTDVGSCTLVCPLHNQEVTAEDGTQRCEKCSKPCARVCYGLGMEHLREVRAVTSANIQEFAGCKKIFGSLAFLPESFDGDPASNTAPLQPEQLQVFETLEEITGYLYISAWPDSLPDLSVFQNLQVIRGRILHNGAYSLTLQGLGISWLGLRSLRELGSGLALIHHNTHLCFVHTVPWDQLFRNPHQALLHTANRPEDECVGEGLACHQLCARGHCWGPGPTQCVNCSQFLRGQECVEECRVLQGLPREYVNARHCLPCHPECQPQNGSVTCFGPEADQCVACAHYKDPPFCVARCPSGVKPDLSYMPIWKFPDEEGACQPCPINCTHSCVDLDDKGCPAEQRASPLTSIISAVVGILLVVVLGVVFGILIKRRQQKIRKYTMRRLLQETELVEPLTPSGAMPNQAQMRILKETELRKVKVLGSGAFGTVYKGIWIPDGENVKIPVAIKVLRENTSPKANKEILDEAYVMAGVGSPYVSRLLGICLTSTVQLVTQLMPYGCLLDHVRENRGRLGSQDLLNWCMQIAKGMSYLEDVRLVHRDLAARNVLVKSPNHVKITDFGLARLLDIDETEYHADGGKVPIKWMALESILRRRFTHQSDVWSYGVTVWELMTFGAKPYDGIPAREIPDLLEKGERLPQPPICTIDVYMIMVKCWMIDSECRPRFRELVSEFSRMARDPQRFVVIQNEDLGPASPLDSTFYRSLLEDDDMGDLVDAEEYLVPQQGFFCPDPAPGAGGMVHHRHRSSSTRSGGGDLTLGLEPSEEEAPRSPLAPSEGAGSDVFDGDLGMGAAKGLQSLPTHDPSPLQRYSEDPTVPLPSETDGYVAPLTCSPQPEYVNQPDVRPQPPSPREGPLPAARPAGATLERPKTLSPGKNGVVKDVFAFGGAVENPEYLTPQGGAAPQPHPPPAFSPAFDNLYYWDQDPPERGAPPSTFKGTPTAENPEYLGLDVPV
Briefly: HER2-BT474 whole cell kinase ELISA. The format is cell-based. As for the experimental part:
HER2-BT474 assays measuring whole cell HER2 activity was carried out as described below:
All the following steps are at room temperature and aseptically, unless stated otherwise. All ELISA plate washing is by rinsing with distilled water three times and once with TBST.
Incubate the cells in 5% CO2 at 37° C. overnight.
2. ELISA Plate Coating and Blocking
(ELISA stands for enzyme-linked immunosorbent assay.)

Test [1] has as its system MCF7 cells overexpress the HER2 kinase (MCF7-HER2). Briefly: MCF-7/HER-2 SRB growth assay. It is filed as cell-based, human. Particulars: Table VI, 0.5% FBS, four days.
Excerpt: as §1, with “This example illustrates the ability of the exemplary compounds to inhibit receptor tyrosine kinases, such as HER2 and/or EGFR. The” for “The”
(§2) MCF-7 cells are seeded at 2000 cells/ well in a 96-well flat bottom plate in normal growth media, which was 10% FBS/RPMI supplemented with 2 mM Glutamine. The plate of cells is incubated for about 24 hours at 37° C. after which it receives an equal volume of compound dilution per well making the total volume per well 200 μl. The compound is prepared at 2 times the desired highest final concentration and serially diluted in the normal growth media in a 96-well round bottom plate and then transferred to plate of cells. DMSO serves as the vector control up to 0.2% as final concentration. The cells are then incubated at 37° C. in a humidified 5% CO2 incubator.
(§3) Four days following dosing of compound, the media is discarded and 200 μl/well of ice-cold 10% TCA (Trichloroacetic Acid) is added to fix cells. After 60 minutes at 4° C., the TCA is discarded and the plate is rinsed 5 times with water. The plate is then air-dried and 100 μl/well of 0.4% SRB (Sulforhodamine B from Sigma) in 1% Acetic Acid is added to stain cells for 10 minutes at room temperature. The SRB is discarded and the plate is rinsed 5 times with 1% Acetic Acid. After the plate is completely dried, 100 μl/well of 10 mM Tris-base is added to solubilize the dye. After 5 to 10 minutes, the plate is read on a Dynatech ELISA Plate Reader at dual wavelengths at 570 nm and 630 nm.
8. MCF-7/HER-2 SRB Growth Assay
The protocol is basically the same as that above (for the MCF-7 Growth Assay) except that immediately before the compound is added, the normal growth media is removed and 0.5% FBS/RPMI supplemented with 2 mM Glutamine is added onto the cells. The compound is also prepared in this 0.5% serum media. The plate of cells is incubated for four days and developed as usual.
In general terms: The SRB assay estimates cell density from bound dye.

In test [2] the test system is MCF7 human breast carcinoma cells. Briefly: MCF-7 SRB growth assay. It is filed as cell-based. Particulars: Table VI, 10% FBS, four days.
Excerpt: as §1, with “This example illustrates the ability of the exemplary compounds to inhibit receptor tyrosine kinases, such as HER2 and/or EGFR. The” for “The”
6. MCF-7 SRB Growth Assay
as §2, §3

[3] abbreviates: Table V, read-out: Estimated IC50 Cellular Kinase Assays EGFR (EGF-3T3).
[4] abbreviates: Table VI, cellular kinase assay, read-out: EGFR-3T3.
Setting [5] is: HER2-BT474, Table VI, cellular kinase assay.
Where [6] appears, read: Table V, read-out: Estimated IC50 Cellular Kinase Assays HER2 (BT474).
Setting [7] is: Table VI, cellular kinase assay, read-out: HER2-BT474.
Where [8] appears, read: Estimated IC50 Cellular Kinase Assays HER2 (BT474), Table V.
Setting [9] is: Table III, cellular kinase assay, class symbol, read-out: HER2.
[10] abbreviates: Table III, cellular kinase assay, class symbol, read-out: EGFR.

On to `N#C/C(=C\c1ccc(O)c(O)c1)C(=O)NCCCCc1ccccc1` [Compound M10], for which the IC50 was above 50 µM at human EGF receptor (setting [3]), at least 50 µM on human EGF receptor (setting [4]), 30.6 µM at HER2 (setting [5]) and 30.6 µM at HER2 (setting [6]).

In the case of `N#CC(C#N)=Cc1cc(O)c(O)c(I)c1` [Compound M12], the IC50 at human EGF receptor (setting [3]) was 13.4 µM; at human EGF receptor (setting [4]), 13.4 µM; on HER2 (setting [6]), above 50 µM; at HER2 (setting [7]), above 50 µM.

As to `CC(C)(C)c1cc(C=C(C#N)C#N)cc(Br)c1O` [Compound M14], the IC50 at human EGF receptor (setting [3]) was 37.2 µM; on human EGF receptor (setting [4]) it was 37.2 µM; on HER2 (setting [6]) it was above 50 µM; at HER2 (setting [7]), above 50 µM.

In the case of `CC(C)(C)c1cc(C=C(C#N)c2[nH]nc(N)c2C#N)cc(C(C)(C)C)c1O` [Compound M17], the IC50 on human EGF receptor (setting [3]) was 8.65 µM; on human EGF receptor (setting [4]), 8.65 µM; on HER2 (setting [6]) it was 8.58 µM; at HER2 (setting [7]) it was 8.58 µM.

Take `CC(C)c1cc(C=C(C#N)C#N)cc(C(C)C)c1O` [Compound M19]: the IC50 on human EGF receptor (setting [3]) is above 50 µM; on human EGF receptor (setting [4]), above 50 µM; at HER2 (setting [8]) it was 10.6 µM; at HER2 (setting [5]) it was 10.6 µM.

Take `N#C/C(=C\c1cc(O)c(O)c(I)c1)C(=O)NCc1ccccc1` [Compound M23]: the IC50 on human EGF receptor (setting [4]) turned out to be 17 µM; at HER2 (setting [7]), 26 µM.

With `CC(C)c1cc(/C=C(\C#N)C(N)=S)cc(C(C)C)c1O` [Compound M25, (E)-2-Aminothiocarbonyl-3-(3,5-diisopropyl-4-hydroxyphenyl)acrylonitrile], the IC50 is above 100 µM at human EGF receptor (setting [4]) and 3.1 µM at HER2 (setting [7]).

In the case of `CC(C)c1cc(/C=C(\C#N)C(=O)Nc2ccc(C(F)(F)F)cc2)cc(C(C)C)c1O` [Compound M28, (E)-3-(3,5-Diisopropyl-4-hydroxyphenyl)-2-[(4-trifluoromethyl)phenylaminocarbonyl]acrylonitrile], the IC50 was 2 µM in test [1] (Homo sapiens, MCF7, 96 h); 12 µM in test [2] (Homo sapiens, MCF7, 96 h); 2.2 µM on HER2 (setting [7]).

For `Cc1cc(/C=C(\C#N)S(=O)(=O)/C(C#N)=C/c2cc(C)c(O)c(C)c2)cc(C)c1O` [Compound M38], the IC50 on human EGF receptor (setting [4]) is above 100 µM; in test [1], above 100 µM; in test [2] it was above 100 µM; on HER2 (setting [7]), 14 µM. At HER2 (cellular assays of the Examples, versus analogous compounds having bulkier R1 and R3 groups), the “activity in cellular assays” value is “less activity”.

Consider `N#C/C(=C\c1ccc([N+](=O)[O-])c(O)c1)C(=O)NCCCc1ccccc1` [Compound M39, (E)-3-(3-Hydroxy-4-nitrophenyl)-2-[(3-phenyl-n-propyl)aminocarbonyl]acrylonitrile], for which the IC50 at human EGF receptor (setting [4]) came out at 6.8 µM; at HER2 (setting [7]) it was 39 µM.

For `COc1cc2ncnc(Nc3cccc(Cl)c3)c2cc1OC` [Compound P13a], the figures for the IC50 at HER2 (setting [9]) and at HER2 (setting [6]) were below 50 µM and 1.6 µM, respectively.

As for `Cc1ccc2ncnc(Nc3ccc4c(c3)OCO4)c2c1` [Compound P14a], the IC50 was below 50 µM at human EGF receptor (setting [10]), 22.2 µM at human EGF receptor (setting [3]), above 50 µM on HER2 (setting [9]) and above 50 µM on HER2 (setting [6]).

For the compound `Cc1ccc2ncnc(Nc3ccc4c(c3)OCO4)c2c1` [Compound P14b], the IC50 on human EGF receptor (setting [10]) was below 50 µM; on human EGF receptor (setting [3]), 20.9 µM; at HER2 (setting [9]), above 50 µM; on HER2 (setting [6]), above 50 µM.

Regarding `N#CC(C#N)=NNc1cccc(Cl)c1` [Compound Q11], the IC50 at human EGF receptor (Estimated IC50 Cellular Kinase Assays EGFR (EGF-3T3), Table V) is above 50 µM; on HER2 (setting [8]), 11.1 µM. Also, on HER2 (significantly inhibit = IC50 less than 50 μM), the “inhibition of HER2 activity” value is reported as “significantly inhibited”.

Take `Cc1cc2nc(CBr)c(-c3ccccc3)nc2cc1C` [Compound R9]: the IC50 on human EGF receptor (setting [3]) was 35.5 µM; at HER2 (setting [6]) it was 20.7 µM.

For `Clc1cc2ncc(-c3ccccc3)nc2cc1Cl` [Compound R14], the IC50 on human EGF receptor (setting [3]) and at HER2 (setting [6]) was 25 µM in each case.

`Cc1cc2nc3c(nc2cc1C)-c1ccccc1C3=O` [Compound R15]: the IC50 on human EGF receptor (setting [3]) is 25 µM; on HER2 (setting [6]), above 50 µM.
